Measurements published in US12077503B2, “Substituted cyclic amides and their use as herbicides” (FMC CORPORATION, priority 2015, dated 2024).

Columns and labels:
Assay type in all cases: in vivo
[1] = system: ragweed (common ragweed, Ambrosia elatior); experiment: Test A preemergence; conditions: Ambrosia artemisiifolia, pre-emergence, 240 h, 0 to 100 scale where 0 is no effect and 100 is complete control, read-out: Ragweed plant response rating
Method in brief: (§1)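 Greenhouse, ~10 d after spray; visual injury vs untreated controls, 0 = no effect, 100 = complete control. Preemergence: directed soil spray over planted seeds. Postemergence: plants 2–10 cm, 1–2 leaf stage. Loam/sand blend. Compound in non-phytotoxic solvent with surfactant.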

[2] = system: ryegrass, Italian (Italian ryegrass, Lolium multiflorum); experiment: Test A preemergence; conditions: Lolium multiflorum, pre-emergence, 240 h, 0 to 100 scale where 0 is no effect and 100 is complete control, read-out: Ryegrass, Italian plant response rating
Method in brief: as §1

[3] = system: pigweed (Amaranthus retroflexus); experiment: Test A preemergence; conditions: Amaranthus retroflexus, pre-emergence, 240 h, 0 to 100 scale where 0 is no effect and 100 is complete control, read-out: Pigweed plant response rating
[4] = system: Kochia (Kochia scoparia); experiment: Test A preemergence; conditions: Bassia scoparia, pre-emergence, 240 h, 0 to 100 scale where 0 is no effect and 100 is complete control, read-out: Kochia plant response rating
Method in brief: as §1

[5] = system: barnyardgrass (Echinochloa crus-galli); experiment: Test A preemergence; conditions: Echinochloa crus-galli, pre-emergence, 240 h, 0 to 100 scale where 0 is no effect and 100 is complete control, read-out: Barnyardgrass plant response rating
Method in brief: as §1

[6] = system: giant foxtail (Setaria faberii); experiment: Test A preemergence; conditions: Setaria faberi, pre-emergence, 240 h, 0 to 100 scale where 0 is no effect and 100 is complete control, read-out: Foxtail, Giant plant response rating
Method in brief: as §1

[7] = system: sedge, umbrella (small-flower umbrella sedge, Cyperus difformis); experiment: Test B flooded paddy test; conditions: Cyperus difformis, 250 g ai/ha, Flood; 0 to 100 scale where 0 is no effect and 100 is complete control; read-out: Sedge, Umbrella plant response rating
Method in brief: (§2)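 Flooding to 3 cm over soil accompanied treatment, which consisted of adding compound to the standing water around 2-leaf plants; depth was then maintained. Visual assessment versus controls followed at 13 to 15 d (scale 0–100, 0 meaning no effect).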

[8] = system: rice (Oryra sativa); experiment: Test B flooded paddy test; conditions: Oryza sativa, 250 g ai/ha, Flood; 0 to 100 scale where 0 is no effect and 100 is complete control; read-out: Rice plant response rating
Method in brief: as §2

[9] = system: ducksalad (Heteranthera limosa); experiment: Test B flooded paddy test; conditions: Heteranthera limosa, 250 g ai/ha, Flood; 0 to 100 scale where 0 is no effect and 100 is complete control; read-out: Ducksalad plant response rating
Method in brief: as §2

[10] = system: barnyardgrass (Echinochloa crus-galli); experiment: Test B flooded paddy test; conditions: Echinochloa crus-galli, 250 g ai/ha, Flood; 0 to 100 scale where 0 is no effect and 100 is complete control; read-out: Barnyardgrass plant response rating
Method in brief: as §2

[11] = system: wheat (Triticum aestivum); experiment: Test A postemergence; conditions: Triticum aestivum, post-emergence, 240 h, Postemergence, read-out: Wheat plant response rating (0 to 100 scale)
Method in brief: as §1

[12] = system: ragweed (common ragweed, Ambrosia elatior); experiment: Test A postemergence; conditions: Ambrosia artemisiifolia, post-emergence, 240 h, Postemergence, read-out: Ragweed plant response rating (0 to 100 scale)
Method in brief: as §1

[13] = system: ryegrass, Italian (Italian ryegrass, Lolium multiflorum); experiment: Test A postemergence; conditions: Lolium multiflorum, post-emergence, 240 h, Postemergence, read-out: Ryegrass, Italian plant response rating (0 to 100 scale)
Method in brief: as §1

[14] = system: pigweed (Amaranthus retroflexus); experiment: Test A postemergence; conditions: Amaranthus retroflexus, post-emergence, 240 h, Postemergence, read-out: Pigweed plant response rating (0 to 100 scale)
Method in brief: as §1

[15] = system: Kochia (Kochia scoparia); experiment: Test A postemergence; conditions: Bassia scoparia, post-emergence, 240 h, Postemergence, read-out: Kochia plant response rating (0 to 100 scale)
Method in brief: as §1

[16] = system: Galium (catchweed bedstraw, Galium aparine); experiment: Test A postemergence; conditions: Galium, post-emergence, 240 h, Postemergence, read-out: Galium plant response rating (0 to 100 scale)
Method in brief: as §1

[17] = system: barnyardgrass (Echinochloa crus-galli); experiment: Test A postemergence; conditions: Echinochloa crus-galli, post-emergence, 240 h, Postemergence
Method in brief: as §1

[18] = system: blackgrass (Alopecurus myosuroides); experiment: Test A postemergence; conditions: Alopecurus myosuroides, post-emergence, 240 h, Postemergence, read-out: Blackgrass plant response rating (0 to 100 scale)
Method in brief: as §1

[19] = system: corn (Zea mays); experiment: Test A postemergence; conditions: Zea mays, post-emergence, 240 h, Postemergence, read-out: Corn plant response rating (0 to 100 scale)
Method in brief: as §1

[20] = system: giant foxtail (Setaria faberii); experiment: Test A postemergence; conditions: Setaria faberi, post-emergence, 240 h, Postemergence, read-out: Foxtail, Giant plant response rating (0 to 100 scale)
Method in brief: as §1

[21] = 125 g ai/ha, preemergence, visual injury rating, approximately 10 d
[22] = 125 g ai/ha, visual rating about 10 d after treatment
[23] = 31 g ai/ha, 0 is no effect, 100 is complete control

SMILES: CN1C[C@H](c2cccc(C#N)c2)[C@@H](C(=O)Nc2ccccc2F)C1=O [Compound 1285]
- pest or weed control at 31 g/ha ([1]; 31 g ai/ha, Preemergence): 30%
- pest or weed control at 125 g/ha [1, 21]: 30%
- pest or weed control at 31 g/ha ([2]; 31 g ai/ha, Preemergence): 0%
- pest or weed control at 125 g/ha [2, 21]: 0%
- pest or weed control at 31 g/ha ([3]; 31 g ai/ha, Preemergence): 0%
- pest or weed control at 125 g/ha [3, 21]: 0%
- pest or weed control at 31 g/ha ([4]; 31 g ai/ha, Preemergence): 20%
- pest or weed control at 125 g/ha [4, 21]: 30%
- pest or weed control at 31 g/ha ([5]; 31 g ai/ha, Preemergence): 40%
- pest or weed control at 125 g/ha [5, 21]: 90%
- pest or weed control at 31 g/ha ([6]; 31 g ai/ha, Preemergence): 90%
- pest or weed control at 125 g/ha [6, 21]: 100%
- pest or weed control at 250 g/ha [7]: 0%
- pest or weed control at 250 g/ha [8]: 25%
- pest or weed control at 250 g/ha [9]: 90%
- pest or weed control at 250 g/ha [10]: 60%
- plant injury at 125 g/ha [11, 22]: 0%
- plant injury at 31 g/ha [11, 23]: 0%
- pest or weed control at 125 g/ha [12, 22]: 0%
- pest or weed control at 31 g/ha [12, 23]: 0%
- pest or weed control at 125 g/ha [13, 22]: 0%
- pest or weed control at 31 g/ha [13, 23]: 0%
- pest or weed control at 125 g/ha [14, 22]: 20%
- pest or weed control at 31 g/ha [14, 23]: 20%
- pest or weed control at 125 g/ha [15, 22]: 0%
- pest or weed control at 31 g/ha [15, 23]: 0%
- pest or weed control at 125 g/ha [16, 22]: 30%
- pest or weed control at 31 g/ha [16, 23]: 20%
- pest or weed control at 125 g/ha ([17]; 125 g ai/ha, visual rating about 10 d after treatment, read-out: Barnyardgrass plant response rating (0 to 100 scale, 0 no effect, 100 complete control)): 80%
- pest or weed control at 31 g/ha ([17]; 31 g ai/ha, 0 is no effect, 100 is complete control, read-out: Barnyardgrass plant response rating (0 to 100 scale)): 60%
- pest or weed control at 125 g/ha [18, 22]: 0%
- pest or weed control at 31 g/ha [18, 23]: 0%
- plant injury at 125 g/ha [19, 22]: 0%
- plant injury at 31 g/ha [19, 23]: 0%
- pest or weed control at 125 g/ha [20, 22]: 70%
- pest or weed control at 31 g/ha [20, 23]: 40%
